The values below come from patent publication US20250092345A1, “INTER ORGAN PLATFORM FOR MICROPHYSIOLOGICAL SYSTEM ON A CHIP” (THE TRUSTEES OF COLUMBIA UNIVERSITY IN THE CITY OF NEW YORK, priority 2020, published 2025).

For one series, the system named is cardiac muscle. Put plainly: Cardiac beat frequency after drug injection into the reservoir of the InterOrgan platform. It is filed as cell-based, human. As to conditions: 10 μM into reservoir at t=0; assessed at 24 and 72 hours.
The test system of series [1] is all tissues in the InterOrgan platform (heart, liver, bone, skin). Kind of series: Doxorubicin-induced toxicity: cell viability, glucose consumption, mitochondrial activity of engineered tissues. It is filed as cell-based, human. As to conditions: 30 μM Dox, 72 hours. How it is done: Metabolic Assays: Glucose, lactate, glutamate and glutamine were measured in parallel using the bioluminescent Glucose-Glo™ (Promega, cat. no. J6021), Lactate-Glo™ (Promega, cat. No. J5021), Glutamine/Glutamate-Glo™ (Promega, cat. no. J8021) and Glutamate-Glo™ (Promega, cat. no. J7021) assays according to the manufacturer's protocols.

The next series relates to engineered skin tissues. Kind of series: Doxorubicin-induced toxicity: skin functional assays. The following applies: 30 μM Dox, both Isolated and InterOrgan cultures. The class given is cell-based, human. As for the experimental part:
Skin functional assays: For drug-induced toxicity studies, electrical current was run through the tissues by placing electrodes on either side of the skin tissue and the change in resistance was subsequently measured and read as a function of the barrier. All tissues were analyzed using the same electrode holder setup to standardize the positions of electrodes with respect to the tissue. To analyze the transport of molecules through the skin barrier, Fluorescein (FITC, ThermoFisher, D3306) powder was added to the epidermis of skin tissues. After 3 hrs, 100 μl of supernatant from the dermal region below the skin tissue was sampled and assayed on a plate reader (BioTex SynergyHTX).

The next series has as its system miRNAs in heart tissues. It is filed as cell-based, human. From the text: We used the GeneChip™ miRNA 4.0 Array (ThermoFisher) to measure differential expression of miRNAs in heart tissues following Dox treatment.
Differential expressions of all other miRNAs were highly significant in the InterOrgan platform, based on Normalized Enrichment Scores (NES), showing activity consistent with published clinical results for 20 out of the 22 miRNAs (FIGS. 14A-14F).
miRNA was isolated using miRNeasy Mini Kit from (Qiagen, 217004). Samples were shipped on dry ice to Advanced BioMedical Laboratories and assayed using the miRNA 4.0 Genechip Array (ThermoFisher). Results were analyzed using the TAC 4.0 software (ThermoFisher). Additional Ingenuity Pathway Analysis was performed using the methodology described above.
To assess the activity of miRNAs, gene set enrichment analysis (GSEA) was performed of their targets, as determined by MultiMiR (release 3.11) and RBio-mirGS (update 0.2.12) biocoductor packages (in R) for genes that were differentially expressed after Dox treatment. Since miRNAs generally repress their targets, the sign of the normalized enrichment score was reversed to correctly report their change in activity. For instance, a positive target enrichment for miR-1273a's targets was reported as a negative NES (NES=−21.31) because it is consistent with its downregulation. […]

In series [2] the test system is human engineered cardiac tissue. Kind of series: Validation of engineered cardiac tissue by drugs with known cardiac effects (beat frequency). As to conditions: doxorubicin 1 μM over 72 hours. The class given is cell-based. How it is done:
The cardiac tissue model was generated from iPS-derived cardiomyocytes and fibroblasts encapsulated in fibrin hydrogel, as in our previous studies. The tissue was formed between two elastic pillars causing cell elongation and alignment, and subjected to electrical stimulation to synchronously contract and work against the pillars.
Specifically, linsitinib was dissolved at a 10 mM concentration in DMSO (Corning) and mixed in with the respective cell medium at a […] concentration unless otherwise noted. Vehicle treatments involved just the addition of DMSO at identical volumes as a control. Tissues were randomly assigned to experimental groups. Medium was changed every day.
To measure the cardiac contractility online, we took contractility videos of the tissues that were analyzed using the native MATLAB code we previously developed. Tissue contractility was measured by tracking the change in tissue area as a function of time. […] Absolute differences in cell area from the baseline frame were then calculated to create a time course of cell area changes over time. The resulting time courses were analyzed using a native MATLAB (MATHWorks) automated peak finding algorithm to determine locations of maximum cell contractions in the time profiles. […] The rate of proarrhythmic events was calculated by the ratio of the number of proarrhythmic events over the total number of beats.

Series [3] can be described thus: FITC absorption and diffusive transport in the integrated platform. It is filed as physicochemical. How it is done: Fluorescein isothiocyanate (FITC, 10 mM in DMSO; Sigma Aldrich) was circulated for the integrated platform to determine potential hydrophobic small molecule absorption, given its physical and chemical properties. FITC was added at a concentration of 10 µM to 8 mL of 1:1 bone tumor/cardiac mixed media and introduced into the platform. The control was the FITC-containing media in a standard 24-multiwell plate (Corning). Aliquots from the reservoir, bone tumor, and cardiac tissue chambers were taken at 12, 24, 48 and 72 hours and measured for fluorescent signal using a spectrophotometer (Biotek).
Measurements of FITC concentrations were used to estimate the spread of linsitinib within the platform via diffusive circulating transport. Four independent platforms were filled with 8 mL of 1:1 mixed media each, after which 10 µM of FITC was injected into the reservoir. The platforms were connected to the peristaltic pumps run at 100 rpm to generate physiologically relevant fluid flow rate and shear stress. Aliquots were taken from the reservoir, bone and cardiac chambers at 0, 2, 4, 6, and 12 hours post injection, and assayed for fluorescence signal on a spectrophotometer (Biotek).

The next series relates to endothelial barrier. Put plainly: Endothelial barrier permeability under flow shear (ECs and supporting MSCs on mesh inserts). It is filed as cell-based, human.

As to `CN(CCOc1ccc(NS(C)(=O)=O)cc1)CCc1ccc(NS(C)(=O)=O)cc1` [dofetilide], the “beat rate of cardiac muscle” value in the series with cardiac muscle is recorded as “decreased”.
`COc1cccc2c1C(=O)c1c(O)c3c(c(O)c1C2=O)C[C@@](O)(C(=O)CO)C[C@@H]3O[C@H]1C[C@H](N)[C@H](O)[C@H](C)O1` [doxorubicin]: in series [1], the cell viability entry is given as “significantly decreased”, the glucose consumption result is on record as “significantly decreased” and the mitochondrial activity result is listed as “significantly decreased”. In addition, in the series with engineered skin tissues, the “diffusional permeability of skin” value is on record as “increased” and the “electrical resistance of skin” value was “decreased”. Also, the “miR-1273a fold change (FC)” value in the series with miRNAs in heart tissues is given as −30.6. In series [2], the beat frequency entry is “initially increased, and then decreased following prolonged exposure”.
Turning to `CNC[C@H](O)c1ccc(O)c(O)c1` [epinephrine], the “beat rate of cardiac muscle” value with cardiac muscle is “increased the beat rate in a time-dependent manner”.
As to Fluorescein isothiocyanate [FITC], the “absorption by the platform” value in series [3] (10 μM circulated for 72 hours, compared to multi-well plates) was “without any measurable absorption”. In series [3] (10 μM injected into reservoir), the “time to equilibrium across both models” value is listed as “approximately 6 hours” and the “time to uniform concentration in all areas of the platform” value is at most 12 h.
Consider thrombin, for which the “barrier permeability in response to thrombin” value in the series on endothelial barrier is given as “physiologic increase in barrier permeability”.
